# Target: Adenosine receptor A2a (Rattus norvegicus, UniProt P30543)
# Sequence (P30543 whole entry): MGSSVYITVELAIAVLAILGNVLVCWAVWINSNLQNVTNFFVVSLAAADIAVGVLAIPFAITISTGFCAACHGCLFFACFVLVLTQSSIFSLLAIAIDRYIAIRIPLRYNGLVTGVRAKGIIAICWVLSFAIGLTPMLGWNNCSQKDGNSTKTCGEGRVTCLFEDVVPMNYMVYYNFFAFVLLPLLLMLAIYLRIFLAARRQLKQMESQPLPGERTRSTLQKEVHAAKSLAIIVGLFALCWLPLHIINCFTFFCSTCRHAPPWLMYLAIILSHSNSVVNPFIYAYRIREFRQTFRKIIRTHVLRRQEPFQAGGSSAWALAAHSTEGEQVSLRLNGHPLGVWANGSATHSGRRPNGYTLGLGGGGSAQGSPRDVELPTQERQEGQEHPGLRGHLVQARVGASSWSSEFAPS
structure (smiles),measurement,value
OC[C@H]1O[C@@H](n2cnc3c(NC4CCCC4)ncnc32)[C@H](O)[C@@H]1O,Ki,2000 nM

# Reference: BindingDB's records for doi:10.1007/bf00175797 (Pharmakologisches Institut, Heidelberg, 1988)
